In patent US6355799B1, “Substituted benzene compounds, process for their preparation, and herbicidal and defoliant compositions containing them” (ISK Americas Incorporated, priority 1997, dated 2002):

How the values were obtained:
Assay type in all cases: in vivo
[1] = tested on: upland rice (Oryza sp., var. Tebonnet, RICE); assay: Post-emerge test, crop safety; details: post-emerge, 14 days after application, rating scale 0-100
Procedure, shortened: (§1)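 Applied at 15–1000 g ai/ha from acetone in 187 l/ha spray volume. Post-emergence applications included 0.25% v/v non-ionic surfactant and reached plants sown 8–21 days before. Pre-emergence applications were incorporated by surface watering. Efficacy or crop damage was rated on a 0–100 scale after 14 days.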

[2] = tested on: field corn (Zea mays L., var. Dekalb 535, CORN); assay: Post-emerge test, crop safety; details: post-emerge, 14 days after application, rating scale 0-100
Procedure, shortened: as §1

[3] = tested on: barnyardgrass (Echinochloa crus-galli, ECHCG); assay: Pre-emerge test, greenhouse herbicide activity screening; details: rated 14 days after application, 0 = no damage, 100 = complete death
Procedure, shortened: as §1

[4] = tested on: sicklepod (Cassia obtusifolia, CASOB); assay: as above; details: rated 14 days after application, 0 = no damage, 100 = complete death
Procedure, shortened: as §1

[5] = tested on: lambsquarters (Chenopodium album, CHEAL); assay: as above; details: rated 14 days after application, 0 = no damage, 100 = complete death
Procedure, shortened: as §1

[6] = tested on: common ragweed (Ambrosia artemisizfolia L., AMBEL); assay: as above; details: rated 14 days after application, 0 = no damage, 100 = complete death
Procedure, shortened: as §1

[7] = tested on: large crabgrass (Digitaria sanguinalis, DIGSA); assay: as above; details: rated 14 days after application, 0 = no damage, 100 = complete death
Procedure, shortened: as §1

[8] = tested on: green foxtail (Setaria viridis, SETVI); assay: as above; details: rated 14 days after application, 0 = no damage, 100 = complete death
Procedure, shortened: as §1

[9] = tested on: ivyleaf morningglory (Ipomoea hederacea, IPOHE); assay: as above; details: rated 14 days after application, 0 = no damage, 100 = complete death
Procedure, shortened: as §1

[10] = tested on: johnsongrass (Sorghum halepense, SORHA); assay: as above; details: rated 14 days after application, 0 = no damage, 100 = complete death
Procedure, shortened: as §1

[11] = tested on: velvetleaf (Abutilon theophrasti, ABUTH); assay: as above; details: rated 14 days after application, 0 = no damage, 100 = complete death
Procedure, shortened: as §1

[12] = tested on: barnyardgrass (Echinochloa crus-galli, ECHCG); assay: Post-emerge test, greenhouse herbicide activity screening; details: post-emerge, 14 days after application, rating scale 0-100
Procedure, shortened: as §1

[13] = tested on: sicklepod (Cassia obtusifolia, CASOB); assay: as above; details: post-emerge, 14 days after application, rating scale 0-100
Procedure, shortened: as §1

[14] = tested on: lambsquarters (Chenopodium album, CHEAL); assay: as above; details: post-emerge, 14 days after application, rating scale 0-100
Procedure, shortened: as §1

[15] = tested on: common ragweed (Ambrosia artemisizfolia L., AMBEL); assay: as above; details: post-emerge, 14 days after application, rating scale 0-100
Procedure, shortened: as §1

[16] = tested on: large crabgrass (Digitaria sanguinalis, DIGSA); assay: as above; details: post-emerge, 14 days after application, rating scale 0-100
Procedure, shortened: as §1

[17] = tested on: green foxtail (Setaria viridis, SETVI); assay: as above; details: post-emerge, 14 days after application, rating scale 0-100
Procedure, shortened: as §1

[18] = tested on: redroot pigweed (Amaranthus retroflexus, AMARE); assay: as above; details: post-emerge, 14 days after application, rating scale 0-100
Procedure, shortened: as §1

[19] = tested on: ivyleaf morningglory (Ipomoea hederacea, IPOHE); assay: as above; details: post-emerge, 14 days after application, rating scale 0-100
Procedure, shortened: as §1

[20] = tested on: johnsongrass (Sorghum halepense, SORHA); assay: as above; details: post-emerge, 14 days after application, rating scale 0-100
Procedure, shortened: as §1

[21] = tested on: velvetleaf (Abutilon theophrasti, ABUTH); assay: as above; details: post-emerge, 14 days after application, rating scale 0-100
Procedure, shortened: as §1

[22] = tested on: upland rice (Oryza sp., var. Tebonnet, RICE); assay: Pre-emerge test, crop safety; details: rated 14 days after application, 0 = no damage, 100 = complete death
Procedure, shortened: (§2)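 Compounds in acetone were track-sprayed at 187 l/ha, 15–1000 g ai/ha, onto sandy loam pots. Pre-emerge seeds were sown one day before spraying, with surface watering afterwards. Post-emerge plants were at the 2–3 leaf stage and sprayed with 0.25% v/v non-ionic surfactant. Injury was rated 0–100 at 14 days.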

[23] = tested on: field corn (Zea mays L., var. Dekalb 535, CORN); assay: Pre-emerge test, crop safety; details: rated 14 days after application, 0 = no damage, 100 = complete death
Procedure, shortened: as §2

[24] = tested on: redroot pigweed (Amaranthus retroflexus, AMARE); assay: Pre-emerge test, greenhouse herbicide activity screening; details: rated 14 days after application, 0 = no damage, 100 = complete death
Procedure, shortened: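 Visual ratings on a 0-100 scale (0 no damage, 100 all plants dead) were taken at 14 days after treatment. Rates of 15-1000 g ai/ha in acetone, 187 l/ha, were sprayed onto soil one day after planting (pre-emerge) or onto 2-3 leaf plants with 0.25% v/v surfactant (post-emerge).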

COc1c(Cl)cc(F)c(-n2c(=O)cc(C(F)(F)F)n(C)c2=O)c1NC(=O)c1ccc(F)cc1 [2-40]
phytotoxicity rating RICE ([1]; 63 g ai/ha): 50 | phytotoxicity rating RICE ([1]; 250 g ai/ha): 95 | phytotoxicity rating CORN ([2]; 63 g ai/ha): 40 | phytotoxicity rating CORN ([2]; 250 g ai/ha): 90 | Pre-emerge Herbicidal Activity, phytotoxicity rating (0-100), ECHCG ([3]; 63 g ai/ha): 85 | Pre-emerge Herbicidal Activity, phytotoxicity rating (0-100), ECHCG ([3]; 250 g ai/ha): 100 | Pre-emerge Herbicidal Activity, phytotoxicity rating (0-100), CASOB ([4]; 63 g ai/ha): 80 | Pre-emerge Herbicidal Activity, phytotoxicity rating (0-100), CASOB ([4]; 250 g ai/ha): 100 | Pre-emerge Herbicidal Activity, phytotoxicity rating (0-100), CHEAL ([5]; 63 g ai/ha): 100 | Pre-emerge Herbicidal Activity, phytotoxicity rating (0-100), CHEAL ([5]; 250 g ai/ha): 100 | Pre-emerge Herbicidal Activity, phytotoxicity rating (0-100), AMBEL ([6]; 63 g ai/ha): 100 | Pre-emerge Herbicidal Activity, phytotoxicity rating (0-100), AMBEL ([6]; 250 g ai/ha): 100 | Pre-emerge Herbicidal Activity, phytotoxicity rating (0-100), DIGSA ([7]; 63 g ai/ha): 90 | Pre-emerge Herbicidal Activity, phytotoxicity rating (0-100), DIGSA ([7]; 250 g ai/ha): 100 | Pre-emerge Herbicidal Activity, phytotoxicity rating (0-100), SETVI ([8]; 63 g ai/ha): 100 | Pre-emerge Herbicidal Activity, phytotoxicity rating (0-100), SETVI ([8]; 250 g ai/ha): 100 | Pre-emerge Herbicidal Activity, phytotoxicity rating (0-100), IPOHE ([9]; 63 g ai/ha): 90 | Pre-emerge Herbicidal Activity, phytotoxicity rating (0-100), IPOHE ([9]; 250 g ai/ha): 100 | Pre-emerge Herbicidal Activity, phytotoxicity rating (0-100), SORHA ([10]; 63 g ai/ha): 60 | Pre-emerge Herbicidal Activity, phytotoxicity rating (0-100), SORHA ([10]; 250 g ai/ha): 100 | Pre-emerge Herbicidal Activity, phytotoxicity rating (0-100), ABUTH ([11]; 63 g ai/ha): 100 | Pre-emerge Herbicidal Activity, phytotoxicity rating (0-100), ABUTH ([11]; 250 g ai/ha): 100 | phytotoxicity rating ECHCG ([12]; 63 g ai/ha): 0 | phytotoxicity rating ECHCG ([12]; 250 g ai/ha): 100 | phytotoxicity rating CASOB ([13]; 63 g ai/ha): 50 | phytotoxicity rating CASOB ([13]; 250 g ai/ha): 90 | phytotoxicity rating CHEAL ([14]; 63 g ai/ha): 80 | phytotoxicity rating CHEAL ([14]; 250 g ai/ha): 95 | phytotoxicity rating AMBEL ([15]; 63 g ai/ha): 80 | phytotoxicity rating AMBEL ([15]; 250 g ai/ha): 100 | phytotoxicity rating DIGSA ([16]; 63 g ai/ha): 10 | phytotoxicity rating DIGSA ([16]; 250 g ai/ha): 90 | phytotoxicity rating SETVI ([17]; 63 g ai/ha): 10 | phytotoxicity rating SETVI ([17]; 250 g ai/ha): 90 | phytotoxicity rating AMARE ([18]; 63 g ai/ha): 90 | phytotoxicity rating AMARE ([18]; 250 g ai/ha): 100 | phytotoxicity rating IPOHE ([19]; 63 g ai/ha): 100 | phytotoxicity rating IPOHE ([19]; 250 g ai/ha): 100 | phytotoxicity rating SORHA ([20]; 63 g ai/ha): 30 | phytotoxicity rating SORHA ([20]; 250 g ai/ha): 100 | phytotoxicity rating ABUTH ([21]; 63 g ai/ha): 100 | phytotoxicity rating ABUTH ([21]; 250 g ai/ha): 100 | Pre-emerge phytotoxicity rating (0-100), crop damage, RICE ([22]; 63 g ai/ha): 95 | Pre-emerge phytotoxicity rating (0-100), crop damage, RICE ([22]; 250 g ai/ha): 100 | Pre-emerge phytotoxicity rating (0-100), crop damage, CORN ([23]; 63 g ai/ha): 50 | Pre-emerge phytotoxicity rating (0-100), crop damage, CORN ([23]; 250 g ai/ha): 95 | Pre-emerge Herbicidal Activity, phytotoxicity rating (0-100), AMARE ([24]; 63 g ai/ha): 100 | Pre-emerge Herbicidal Activity, phytotoxicity rating (0-100), AMARE ([24]; 250 g ai/ha): 100
